Measured values taken from US20090253709A1 (NATIONAL DEFENSE MEDICAL CENTER, priority 2008, published 2009).

Tests used:
MTT assay in H1299 cells = assay type: cell-based; settings: human, H1299 cells (H1299/PhTERT-driven SEAP reporter system), H1299, read-out: MTT (Inhibition μM ± SD); for viability at 24 h, 1 µM: compound concentration 1 μM; for viability at 24 h, 10 µM: compound concentration 10 μM; for viability at 24 h, 100 µM: compound concentration 100 μM
In short: (§1)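 H1299 cells, 2×10^3 per well, treated with drug 48 h. MTT (5 mg/ml stock) added for 4 h at 37° C, then SDS/DMF lysis overnight; absorbance at 570 nm gives viability, used alongside SEAP reporter readout to correct for cell number.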

MTT assay in BJ1 cells = assay type: cell-based; settings: human, hTERT-BJ1-PTERT(3.4)-SEAP cells, BJ1, read-out: MTT (Inhibition μM ± SD); for viability at 48 h, 1 µM: compound concentration 1 μM; for viability at 48 h, 10 µM: compound concentration 10 μM; for viability at 48 h, 100 µM: compound concentration 100 μM
In short: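 After 48 h drug treatment, cells in DMEM/Medium 199 (4:1) with 10% FBS were given MTT (5 mg/ml stock) in serum-free medium for 4 h at 37 °C, lysed overnight in 20% SDS/50% DMF, and absorbance read at 570 nm.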

SK-MEL-28 = experiment: In vitro cytotoxicity, Development Therapeutics Program; assay type: cell-based; settings: SK-MEL-28, melanoma; 1.0×10^−5 M
Description: (§2) From the in vitro experiments of the Development Therapeutics Program of the Cancer Research Institute, the United States, it was known that the synthetic heterocyclic anthraquinone derivatives of the present invention have different inhibition levels to the different cancer cell lines under the concentration of 1.0×10^−5 M. Please refer to Table 2, which is the result of in vitro cytotoxicity of 2,7-disubstituted anthraquinone derivatives of the present invention.

HCC-2998 = experiment: as above; assay type: cell-based; settings: HCC-2998, colon cancer; 1.0×10^−5 M
Description: as §2

SF-295 = experiment: as above; assay type: cell-based; settings: SF-295, CNS cancer; 1.0×10^−5 M
Description: as §2

NCl-H322M = experiment: as above; assay type: cell-based; settings: non-small cell lung cancer, 1.0×10^−5 M
Description: as §2

KM12 = experiment: as above; assay type: cell-based; settings: KM12, colon cancer; 1.0×10^−5 M
Description: as §2

SW-620 = experiment: as above; assay type: cell-based; settings: SW-620, colon cancer; 1.0×10^−5 M
Description: as §2

telomerase = experiment: Telomeric repeat amplification protocol (TRAP); assay type: biochemical; settings: compounds at 100, 10 and 1 μM; gel electrophoresis
[1] = system: different cancer cell lines; experiment: In vitro cytotoxicity, Development Therapeutics Program, summary over all cell lines; assay type: cell-based; settings: 1.0×10^−5 M
Description: as §2

H1299 = experiment: MTT assay in H1299 cells; assay type: cell-based; settings: MTT assay, H1299
In short: as §1

SMILES | viability at 24 h, 1 µM (MTT assay in H1299 cells) | viability at 24 h, 10 µM (MTT assay in H1299 cells) | viability at 24 h, 100 µM (MTT assay in H1299 cells) | viability at 48 h, 1 µM (MTT assay in BJ1 cells) | viability at 48 h, 10 µM (MTT assay in BJ1 cells) | viability at 48 h, 100 µM (MTT assay in BJ1 cells) | Cellular growth rate (%) (SK-MEL-28) | Cellular growth rate (%) (HCC-2998) | Cellular growth rate (%) (SF-295) | Cellular growth rate (%) (NCl-H322M) | Cellular growth rate (%) (KM12) | Cellular growth rate (%) (SW-620) | telomerase inhibition effect in TRAP assay (telomerase) | Cellular growth rate (%), Mean [1] | cytotoxicity to H1299 cancer cells compared with mitoxantrone (H1299)
CN(C)CC(=O)Nc1ccc2c(c1)C(=O)c1cc(NC(=O)CN(C)C)ccc1C2=O [Compound 8, 2,7-Bis[2-(dimethylamino)acetamido]anthraquinone] | 92 ± 13% | 55 ± 9% | 15 ± 12% | 96 ± 3% | 45 ± 1% | 39 ± 1% | 32.11% | −73.97% | −83.51% | 32.42% | 66.95% | 23.36% | telomerase inhibition effect | 28.70% | 
CCN(CC)CCC(=O)Nc1ccc2c(c1)C(=O)c1cc(NC(=O)CCN(CC)CC)ccc1C2=O [Compound 16, 2,7-Bis[3-(diethylamino)propionamido]anthraquinone] | 106 ± 15% | 41 ± 20% | 1 ± 1% | 103 ± 2% | 55 ± 3% | 36 ± 1% | 2.56% | −87.42% | −19.91% | 44.75% | 21.82% | 16.93% | telomerase inhibition effect | 16.33% | 
CC(=O)Nc1ccc2c(c1)C(=O)c1cc(NC(C)=O)ccc1C2=O [Compound 26, 2,7-Bis(acetamido)anthraquinone] | 117 ± 15% | 83 ± 13% | 55 ± 11% | 106 ± 1% | 91 ± 2% | 91 ± 2% | 117.60% | 105.35% | 103.25% | 97.50% | 105.94% | 103.21% | telomerase inhibition effect | 99.06% | 
O=C1c2ccc(NC(=O)C3CC3)cc2C(=O)c2cc(NC(=O)C3CC3)ccc21 [Compound 32, 2,7-Bis(cyclopropanecarbonamido)anthraquinone] | 46 ± 14% | 36 ± 13% | 43 ± 15% | 60 ± 6% | 44 ± 10% | 47 ± 2% | 108.51% | 132.37% | 86.60% | 105.77% | 92.67% | 104.75% |  | 91.54% | better than
